Data on two substances can be found in patent US4948873A, “Gonadoliberine analogues of high activity” (Richter Gedeon Vegyeszeti Gyar, priority 1985, dated 1990).

Assay type in all cases: in vivo
Series [1] relates to rats. The series can be described thus: Toxicity in rats, single dose. Particulars: single dose of 10 mg/kg. From the text:
(§1) The toxicity data of Asu^6, desGly^10 -GnRH-ethylamide are as follows: […]

A further series deals with LH hormone. Put plainly: LH concentration in the serum of male mice after subcutaneous administration (radioimmunoassay). Conditions: dose 200 ng/mouse; for LH serum level in mice after the treatments, 2 hours: 2 hours after treatment; for LH serum level in mice after the treatments, 4 hours: 4 hours after treatment; for LH serum level in mice after the treatments, 6 hours: 6 hours after treatment. The method, then: The common feature of the superactive GnRH analogues is that they liberate many times the amount of LH hormone than the natural GnRH could do and the duration of their effect is also much longer. In order to illustrate the above statements the activity for liberating LH hormone of the natural GnRH analogues and some superactive and some representatives of the GnRH analogues of formula I according to the invention are shown in FIG. 1. The experiments were carried out on male mice, the active ingredient was administered subcutaneously and the LH content of the serum of the blood of the animals was measured by radioimmunoassay.
Table I summarizes the biological data of a preferable representative of the GnRH analogues of formula I, Asu^6 -desGly^10 -GnRH-ethylamide.

The subject of series [2] is sexually matured female rabbits. The series can be described thus: Induction of ovulation in angora rabbit. Conditions: single dose of 1.5 μg/rabbit, thereafter artificially inseminated. The method, then:
(d) Induction of ovulation in angora rabbit
The sexually matured female rabbits were administered with a single does of 1.5 μg/rabbit, thereafter artificially inseminated. 90% of the animals became pregnant.

Series [3] has as its system sexually mature female rats. Put plainly: Inhibition of ovulation in rats. Conditions: 0.5 μg/rat for 17 days. The procedure:
(c) Inhibition of ovulation in rats
The compound was administered for 17 days in a dose of 0.5 μg/rats to sexually mature female rats. The inhibition of ovulation was 100%. The experimental method is described in B.B.R.C. 118, 351 […] Kovacs et al.

The subject of series [4] is rats. Put plainly: Toxicity in rats, administration for 17 days. Conditions: 10 μg/rat for 17 days.
Source text: as §1

Turning to “Glp-His-Trp-Ser-Tyr-Asu-Leu-Arg-Pro-ethylamide [Asu^6,desGly^10 -GnRH-ethylamide]”, the toxicity entry in the series with rats [1] is on record as “did not prove to be toxic”. For the same substance, in the series on LH hormone, the “LH serum level in mice after the treatments, 2 hours” value worked out at 958.4 ng/mL; the “LH serum level in mice after the treatments, 4 hours” value is 702.3 ng/mL; the “LH serum level in mice after the treatments, 6 hours” value came out at 216.2 ng/mL. In addition, the “animals that became pregnant” value in series [2] is recorded as 90%. In series [3], this substance displayed an inhibition of ovulation of 100%. The toxicity result in the series on rats [4] was “atoxic”.

In the case of “GnRh: native gonadoliberine peptide hormone of hypothalamic origin [reference compound]”, in the series on LH hormone, the “LH serum level in mice after the treatments, 2 hours” value was 85.2 ng/mL; the “LH serum level in mice after the treatments, 4 hours” value is 81.4 ng/mL; the “LH serum level in mice after the treatments, 6 hours” value is 87.0 ng/mL.
